Measured values: PubChem BioAssay AID256 (DTP/NCI, 2004)
Values joined by “and” are separate entries in the source; they are usually repeats but may differ in a detail not shown here. Equal entries are not always repeated. Toxic doses and inconclusive results are not listed. Non-standard residues stand in square brackets, D forms with d. Residues, ends and D or L forms follow the SMILES beside them. ξ: configuration not given here. ξI = CCC(C)C(N)C(=O)O

Tested on: CD2F1 mice, L1210 leukemia ip, survival T/C
Assay: NCI In Vivo Anticancer Drug Screen. Data for tumor model L1210 Leukemia (intraperitoneal) in CD2F1 (CDF1) mice
Conditions: higher = longer survival
Method in brief: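 Mice carrying a transplanted tumor received test compound or vehicle alone. The value is the measurement in the treated group divided by that in the vehicle-treated control group.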

[1] = endpoint: mean survival time, dose: 100.0 mg/kg/injection, schedule: Q04DX002 (ip), vehicle: saline with Tween-80
[2] = endpoint: mean survival time, dose: 200.0 mg/kg/injection, schedule: Q04DX002 (ip), vehicle: saline with Tween-80
[3] = endpoint: mean survival time, dose: 400.0 mg/kg/injection, schedule: Q04DX002 (ip), vehicle: saline with Tween-80
[4] = endpoint: mean survival time, dose: 50.0 mg/kg/injection, schedule: Q01DX009 (ip), vehicle: saline with Tween-80
[5] = endpoint: mean survival time, dose: 100.0 mg/kg/injection, schedule: Q01DX009 (ip), vehicle: saline with Tween-80
[6] = endpoint: mean survival time, dose: 200.0 mg/kg/injection, schedule: Q01DX009 (ip), vehicle: saline with Tween-80
[7] = endpoint: mean survival time, dose: 100.0 mg/kg/injection, schedule: Q04DX003 (ip), vehicle: saline with Tween-80
[8] = endpoint: mean survival time, dose: 200.0 mg/kg/injection, schedule: Q04DX003 (ip), vehicle: saline with Tween-80
[9] = endpoint: mean survival time, dose: 400.0 mg/kg/injection, schedule: Q04DX003 (ip), vehicle: saline with Tween-80
[10] = endpoint: mean survival time, dose: 100.0 mg/kg/injection, schedule: Q01DX001 (ip), vehicle: saline with Tween-80
[11] = endpoint: mean survival time, dose: 200.0 mg/kg/injection, schedule: Q01DX001 (ip), vehicle: saline with Tween-80
[12] = endpoint: mean survival time, dose: 400.0 mg/kg/injection, schedule: Q01DX001 (ip), vehicle: saline with Tween-80

Q: What does the source list for `S=c1nccc[nH]1.[Pd]`?
A: T/C (endpoint: mean survival time, dose: 3.13 mg/kg/injection, schedule: Q04DX003 (ip), vehicle: distilled water + Tween-80): 97 % of control; T/C (endpoint: mean survival time, dose: 6.25 mg/kg/injection, schedule: Q04DX003 (ip), vehicle: distilled water + Tween-80): 94 % of control; T/C (endpoint: mean survival time, dose: 12.5 mg/kg/injection, schedule: Q04DX003 (ip), vehicle: distilled water + Tween-80): 89 % of control; T/C (endpoint: mean survival time, dose: 25.0 mg/kg/injection, schedule: Q04DX003 (ip), vehicle: distilled water + Tween-80): 89 % of control; T/C (endpoint: mean survival time, dose: 50.0 mg/kg/injection, schedule: Q04DX003 (ip), vehicle: distilled water + Tween-80): 89 % of control

Q: Which T/C [1] does the source give for `CC12CCC=CC1=CC(=O)CC2` (stereo not given) here?
A: The T/C was 96 % of control.

Q: And the T/C [2]?
A: Its T/C is 100 % of control.

Q: What about the T/C [3] of the same compound?
A: Its T/C is 124 % of control.

Q: Which results are given for `COc1c(OC(C)=O)ccc2c1C=CCCC2=O`?
A: T/C [4]: 96 % of control; T/C [5]: 100 % of control; T/C [6]: 92 % of control

Q: What does the source list for `COc1ccc(NC2=C(C)C(=O)C3=C(C2=O)[C@H](COC(N)=O)[C@]2(OC)[C@@H]4N[C@@H]4CN32)cc1`?
A: T/C (endpoint: mean survival time, dose: 1.5 mg/kg/injection, schedule: Q01DX001 (ip), vehicle: water): 107 % of control; T/C (endpoint: mean survival time, dose: 3.0 mg/kg/injection, schedule: Q01DX001 (ip), vehicle: water): 118 % of control and 110 % of control; T/C (endpoint: mean survival time, dose: 6.0 mg/kg/injection, schedule: Q01DX001 (ip), vehicle: water): 117 % of control and 111 % of control; T/C (endpoint: mean survival time, dose: 12.0 mg/kg/injection, schedule: Q01DX001 (ip), vehicle: water): 124 % of control; T/C (endpoint: mean survival time, dose: 24.0 mg/kg/injection, schedule: Q01DX001 (ip), vehicle: water): 153 % of control; T/C (endpoint: mean survival time, dose: 48.0 mg/kg/injection, schedule: Q01DX001 (ip), vehicle: water): 124 % of control

Q: Which results are given for `c1ccc2c(c1)ccc1c3ccccc3[nH]c21`?
A: T/C (endpoint: mean survival time, dose: 100.0 mg/kg/injection, schedule: Q01DX009 (ip), vehicle: other): 94 % of control; T/C (endpoint: mean survival time, dose: 200.0 mg/kg/injection, schedule: Q01DX009 (ip), vehicle: other): 97 % of control; T/C (endpoint: mean survival time, dose: 400.0 mg/kg/injection, schedule: Q01DX009 (ip), vehicle: other): 96 % of control

Q: For `Cc1ccc(C(=O)O)s1`, which T/C [7] is on record?
A: The T/C was 91 % of control.

Q: What about the T/C [8] of the same compound?
A: Its T/C is 97 % of control.

Q: Which T/C (endpoint: mean survival time, dose: 100.0 mg/kg/injection, schedule: Q01DX009 (ip), vehicle: Klucel (hydroxypropylcellulose) (HPC)) does the source give for `CCOC(=O)c1ccc(NNS(=O)(=O)c2cccc(N)c2)cc1` here?
A: Its T/C is 97 % of control.

Q: And the T/C [7]?
A: Its T/C is 96 % of control.

Q: What about the T/C (endpoint: mean survival time, dose: 200.0 mg/kg/injection, schedule: Q01DX009 (ip), vehicle: Klucel (hydroxypropylcellulose) (HPC)) of the same compound?
A: Its T/C is 93 % of control.

Q: What about the T/C [8] of the same compound?
A: The T/C was 101 % of control.

Q: What about the T/C (endpoint: mean survival time, dose: 400.0 mg/kg/injection, schedule: Q01DX009 (ip), vehicle: Klucel (hydroxypropylcellulose) (HPC)) of the same compound?
A: The T/C was 101 % of control.

Q: What about the T/C [9] of the same compound?
A: Its T/C is 95 % of control.

Q: Which results are given for `CCC(C)C(NC(=O)CN)C(=O)O` (stereo not given) (H-Gly-[ξI]-OH)?
A: T/C [1]: 100 % of control; T/C (endpoint: mean survival time, dose: 100.0 mg/kg/injection, schedule: Q04DX002 (ip), vehicle: saline): 94 % of control; T/C [2]: 103 % of control; T/C (endpoint: mean survival time, dose: 200.0 mg/kg/injection, schedule: Q04DX002 (ip), vehicle: saline): 90 % of control; T/C [3]: 95 % of control; T/C (endpoint: mean survival time, dose: 400.0 mg/kg/injection, schedule: Q04DX002 (ip), vehicle: saline): 101 % of control

Q: How did the T/C [4] turn out when `CN(CSc1ccc(Cl)cc1)c1ccccc1` was run?
A: Its T/C is 96 % of control.

Q: What about the T/C [5] of the same compound?
A: The T/C was 96 % of control.

Q: And the T/C [6]?
A: Its T/C is 96 % of control.

Q: With `O=C(CNC(=O)Nc1cccc([N+](=O)[O-])c1)N/N=C/c1ccccc1O` as the compound, how does the T/C [4] read?
A: The T/C was 93 % of control.

Q: What about the T/C [5] of the same compound?
A: The T/C was 86 % of control.

Q: And the T/C [6]?
A: Its T/C is 89 % of control.

Q: Which T/C [7] does the source give for `CC1=CS(=O)(=O)CC(=O)N1` here?
A: Its T/C is 103 % of control.

Q: What about the T/C [8] of the same compound?
A: Its T/C is 98 % of control.

Q: And the T/C [9]?
A: The T/C was 95 % of control.

Q: For `NCc1cc(O)c(O)c(O)c1`, which T/C (endpoint: median survival time, dose: 37.5 mg/kg/injection, schedule: Q01DX005 (ip), vehicle: saline) is on record?
A: The T/C was 114 % of control.

Q: What about the T/C (endpoint: median survival time, dose: 150.0 mg/kg/injection, schedule: Q01DX005 (ip), vehicle: saline) of the same compound?
A: Its T/C is 153 % of control.

Q: What about the T/C (endpoint: median survival time, dose: 300.0 mg/kg/injection, schedule: Q01DX005 (ip), vehicle: saline) of the same compound?
A: Its T/C is 156 % of control and 160 % of control.

Q: Which results are given for `COc1ccc2c(c1O)-c1c(OC)c(OC)cc3c1C(C2)N(C)CC3` (stereo not given)?
A: T/C [10]: 97 % of control; T/C [11]: 97 % of control; T/C [12]: 108 % of control

Q: For `c1ccc(Oc2ccc(-c3ccc(Oc4ccccc4)cc3)cc2)cc1`, which T/C [8] is on record?
A: The T/C was 95 % of control.

Q: What about the T/C [9] of the same compound?
A: The T/C was 91 % of control.

Q: What does the source list for `O=C1OCc2ccccc21`?
A: T/C [1]: 96 % of control; T/C [2]: 100 % of control; T/C [3]: 100 % of control

Q: Which T/C (endpoint: mean survival time, dose: 100.0 mg/kg/injection, schedule: Q04DX003 (ip), vehicle: saline) does the source give for `CCOC(=O)CCN(C)C` here?
A: The T/C was 97 % of control.

Q: What about the T/C (endpoint: mean survival time, dose: 200.0 mg/kg/injection, schedule: Q04DX003 (ip), vehicle: saline) of the same compound?
A: Its T/C is 100 % of control.

Q: What about the T/C (endpoint: mean survival time, dose: 400.0 mg/kg/injection, schedule: Q04DX003 (ip), vehicle: saline) of the same compound?
A: Its T/C is 100 % of control.

Q: With `COc1ccc(C2C3CN(C4CCCCC4)C(=O)C3(O)NN2C)cc1` (stereo not given) as the compound, how does the T/C [10] read?
A: Its T/C is 91 % of control.

Q: And the T/C [11]?
A: Its T/C is 88 % of control.

Q: What about the T/C [12] of the same compound?
A: Its T/C is 91 % of control.
